System: PCA response
Test: Rat Passive Cutaneous Anaphylaxis (PCA) test
Type: in vivo, Wistar rats
Settings: iv
Procedure: All of the 2-nitro indane-1,3-diones prepared in the preceeding Examples were submitted for biological testing. The test system was the Rat Passive Cutaneous Anaphylaxis (PCA) test described below in (II).
7, 681Serum containing heat labile homocytotropic antibody was raised in rats by a method similar to that used by Mota. (I. Mota Immunology 1964, 7, 681).
Male Wistar rats of 250-300g, were injected intraperitoneally with 0.5ml. of Bordetella pertussis vaccine (containing 4 × 10^10 dead oranism per ml. and subcutaneously with 0.5ml. of an emulsion of 100mg. of ovalbumin in 2ml of saline and 3ml of incomplete Freunds' adjuvant. Rats were bled by cardiac puncture on day 18, the blood was pooled and separated and serum stored at -20° and thawed only once before use.
II. The P.C.A. test was similar to that described by Ovary and Bier (A. Ovary and O. E. Bier. Proc. Soc. Exp. Biol. Med. 1952, 81, 584) and Goose and Blair (J. Goose and A. M. J. N Blair Immunology 1969, 16, 749).
0.1ml of each of six twofold serial dilutions of the serum in 0.9% saline were injected intradermally into separate sites on the shaved dorsal surface of 250-350g. Wistar rats. 72 hours later the animals were challenged by i.v. injection of 0.3ml of 1% ovalbumin mixed with 0.1ml of a 5% solution of pontamine sky blue dye both in isotonic saline buffered with pH. 7.2 Sorenson buffer (P.B.S.). The rats were killed after 20 minutes and the diameter of the blue wheals at the antibody injection sites were measured. The starting dilution of the serum was adjusted so that there was no response, after challenge, at the site of injection of the highest dilution and a maximum response at the lowest dilution. Typically six twofold serial dilutions of the serum from one-fourth to […] were used.
Compounds were tested for their ability to reduce the diameter of the wheals at the injection sites of dilutions of antibody which on all the controls have less than maximum response. Amounts of the compounds were administered to rats each amount to a test group of six animals at a specified time prior to intravenous challenge with ovalbumin. The diameters of the blue wheals which developed on the test group of animals were compared with those on a control group of six animals treated in the same way as the test group, but which had not received the compound under test.
% Inhibition of P.C.A. = 100 (1 - a/b)
a = The mean of the sum of the diameters of the wheals produced in the test group of animals at those antibody sites where all the control group of animals gave less than maximum response.
b = The mean of the sum of diameters of the wheals produced in the control group of animals at those antibody sites where all the animals in the group gave less than maximum response.
The preferred method of administration was as a solution of the test compound dissolved in pH 7.2 buffer and neutralised with sodium bicarbonate. For those compounds having insoluble sodium salts, the salts were isolated by reaction of the free nitro compound with 2.5N sodium hydroxide and the filtered sodium salt washed free of alkali with water. The dried salts were then administered as a suspension in 1% methyl cellulose.

[1] = 0 h, Time 0 mins (prior to i.v. ovalbumin challenge)
[2] = 0.5 h, Time 30 mins (prior to i.v. ovalbumin challenge)
[3] = 1 h, Time 60 mins (prior to i.v. ovalbumin challenge)

SMILES: CC1C=CC[C@@H]2C(=O)C([N+](=O)[O-])C(=O)[C@H]12 (stereo partly drawn) [8(b), 4-Methyl-2-nitro-cis-3a,4,7,7a-tetrahydroindane-1,3-dione]
- inhibition in vivo at 25 mg/kg [1]: 12%
- inhibition in vivo at 100 mg/kg [1]: 41%
- inhibition in vivo at 25 mg/kg [2]: 13%
- inhibition in vivo at 100 mg/kg [2]: 52%

SMILES: COC(=O)C1C=CC[C@@H]2C(=O)C([N+](=O)[O-])C(=O)[C@H]12 (stereo partly drawn) [9(b), 4-Carbomethoxy-2-nitro-cis-3a, 4,7,7a-tetrahydroindane-1,3-dione]
- inhibition in vivo at 25 mg/kg [1]: 2%
- inhibition in vivo at 100 mg/kg [1]: 10%
- inhibition in vivo at 25 mg/kg [2]: -9%
- inhibition in vivo at 100 mg/kg [2]: -5%

SMILES: O=C1C2C3CCC(C3)C2C(=O)C1[N+](=O)[O-] (stereo not shown) [7(b), 4-Nitro tricyclo [5,2,1,0^2,6] decane-3,5-dione]
- inhibition in vivo at 25 mg/kg [1]: 8%
- inhibition in vivo at 100 mg/kg [1]: 26%
- inhibition in vivo at 25 mg/kg [2]: -3%
- inhibition in vivo at 100 mg/kg [2]: 9%

SMILES: O=C(O)C1C=CC[C@@H]2C(=O)C([N+](=O)[O-])C(=O)[C@H]12 (stereo partly drawn) [5(b), 4-Carboxy-2-nitro cis-3a,4,7,7a-tetrahydroindane-1,3-dione]
- inhibition in vivo at 25 mg/kg [1]: 2%
- inhibition in vivo at 100 mg/kg [1]: -3%
- inhibition in vivo at 25 mg/kg [2]: -1%
- inhibition in vivo at 100 mg/kg [2]: -6%

SMILES: CC(=O)OC1CCC[C@@H]2C(=O)C([N+](=O)[O-])C(=O)[C@H]12 (stereo partly drawn) [10(b), 4-Acetoxy-cis-hexahydro-2-nitro-indane-1,3-dione]
- inhibition in vivo at 25 mg/kg [1]: 12%
- inhibition in vivo at 100 mg/kg [1]: 11%
- inhibition in vivo at 25 mg/kg [2]: 17%
- inhibition in vivo at 100 mg/kg [2]: 20%

SMILES: O=C1C2C3CCC(CC3)C2C(=O)C1[N+](=O)[O-] (stereo not shown) [13(b), 4-Nitro tricyclo [5,2,2,0^2,6] undecane-3,5-dione]
- inhibition in vivo at 25 mg/kg [1]: 14%
- inhibition in vivo at 100 mg/kg [1]: 8%
- inhibition in vivo at 25 mg/kg [2]: 13%
- inhibition in vivo at 100 mg/kg [2]: 29%

SMILES: CC1C=CC(C)[C@@H]2C(=O)C([N+](=O)[O-])C(=O)[C@H]12 (stereo partly drawn) [3(b), 4,7-Dimethyl-2-nitro cis-3a,4,7,7a-tetrahydroindane-1,3-dione]
- inhibition in vivo at 25 mg/kg [1]: -8%
- inhibition in vivo at 100 mg/kg [1]: -8%
- inhibition in vivo at 25 mg/kg [2]: 7%
- inhibition in vivo at 100 mg/kg [2]: -1%

SMILES: CC1CCC[C@@H]2C(=O)C([N+](=O)[O-])C(=O)[C@H]12 (stereo partly drawn) [II(b), 4-Methyl-2-nitro-cis-hexahydroindane-1,3-dione]
- inhibition in vivo at 25 mg/kg [1]: -13%
- inhibition in vivo at 100 mg/kg [1]: 11%
- inhibition in vivo at 25 mg/kg [2]: -8%
- inhibition in vivo at 100 mg/kg [2]: 17%

SMILES: CC1C[C@@H]2C(=O)C([N+](=O)[O-])C(=O)[C@@H]2CC1C (stereo partly drawn) [2(b), 5,6-Dimethyl cis-hexahydro-2-nitro indane-1,3-dione]
- inhibition in vivo at 25 mg/kg [1]: 7%
- inhibition in vivo at 100 mg/kg [1]: 31%
- inhibition in vivo at 25 mg/kg [2]: 6%
- inhibition in vivo at 100 mg/kg [2]: 37%

SMILES: O=C1C2C3C=CC(CC3)C2C(=O)C1[N+](=O)[O-] (stereo not shown) [12(b), 4-Nitro tricyclo [5,2,2,0^2,6] undec-8-ene-3,5-dione]
- inhibition in vivo at 25 mg/kg [1]: 0%
- inhibition in vivo at 100 mg/kg [1]: -3%
- inhibition in vivo at 25 mg/kg [2]: 29%
- inhibition in vivo at 100 mg/kg [2]: 32%

SMILES: O=C1C2C3C=CC(C3)C2C(=O)C1[N+](=O)[O-] (stereo not shown) [6(b), 4-Nitro tricyclo [5,2,1,0^2,6] dec-8-ene-3,5-dione]
- inhibition in vivo at 25 mg/kg [1]: -9%
- inhibition in vivo at 100 mg/kg [1]: 4%
- inhibition in vivo at 25 mg/kg [3]: -9%
- inhibition in vivo at 100 mg/kg [3]: 17%

SMILES: CC1=C(C)C[C@H]2C(=O)C([N+](=O)[O-])C(=O)[C@H]2C1 (relative stereo) [1(b), 5,6-Dimethyl-2-nitro cis-3a,4,7,7a-tetrahydroindane-1,3-dione]
- inhibition in vivo at 25 mg/kg [1]: 16%
- inhibition in vivo at 100 mg/kg [1]: 61%
- inhibition in vivo at 25 mg/kg [2]: 6%
- inhibition in vivo at 100 mg/kg [2]: 42%

SMILES: CC1CCC(C)[C@@H]2C(=O)C([N+](=O)[O-])C(=O)[C@H]12 (stereo partly drawn) [4(b), 4,7-Dimethyl cis-hexahydro-2-nitro indane-1,3-dione]
- inhibition in vivo at 25 mg/kg [1]: 4%
- inhibition in vivo at 100 mg/kg [1]: 19%
- inhibition in vivo at 25 mg/kg [3]: 13%
- inhibition in vivo at 100 mg/kg [3]: 11%

Reference: patent US4005219A, “Pharmaceutical compositions and their administration for the prophylaxis of asthma, hayfever and rhinitis” (Beecham Group Limited, priority 1974, dated 1977)
